Source: patent publication US20020012949A1, “Assay systems for leptin-enhancing agents” (priority 1997, published 2002)

How the values were obtained:
TOBRY986F = molecular target: T1, TOBRY986F (Homo sapiens, UniProt P48357+Q16288, Y986F); test: Luciferase reporter gene assay, TrkC-OB-R chimeric receptor TOBRY986F in neuroblastoma (NBFL) cells; assay type: cell-based; conditions: NT-3 at 20 ng/ml for 36 hours
T1 construct: TrkC (amino acids 1 to 458) to the cytoplasmic domain of OB-R (amino acids 865-1165); expressed in transfected cells; host or cells: NBFL neuroblastoma cells

[1] = molecular target: T2, TOBR (TrkC-OB-R chimeric receptor) (Homo sapiens, UniProt P48357+Q16288); test: Luciferase reporter gene assay, TrkC-OB-R chimeric receptor TOBR in neuroblastoma (NBFL) cells; assay type: cell-based; conditions: NT-3 at 20 ng/ml for 36 hours
T2 construct: TrkC (amino acids 1 to 458) to the cytoplasmic domain of OB-R (amino acids 865-1165); expressed in transfected cells; host or cells: NBFL neuroblastoma cells

[2] = molecular target: T3, TrkC--OB-R chimera (TOBR) (Homo sapiens, UniProt P48357+Q16288); test: Immunoprecipitation and western blotting of tyrosine phosphorylation, NT-3-stimulated COS cells expressing TOBR; assay type: cell-based; conditions: 50 ng/ml human NT-3 for 15 min
T3 construct: TrkC (amino acids 1 to 458) to the cytoplasmic domain of OB-R (amino acids 865-1165); expressed in transfected cells; host or cells: COS-7
Procedure: The cytoplasmic domain and full-length human OB-R was cloned by PCR using human fetal liver and adipocyte cDNA (Clontech) and cloned into the expression vectors pCMX and pMT21. Chimeric receptors were constructed by fusing the extracellular domain and transmembrane domain of TrkC (amino acids 1 to 458) to the cytoplasmic domain of OB-R (amino acids 865-1165). A triple myc epitope tag was added at the C-terminus of all OB-R constructs (18). Truncation and point mutant constructs were generated by PCR and the sequences of all constructs were verified. Expression constructs were transfected into COS-7 cells using lipofectamine (GIBCO-BRL); 36-48 hours after transfection, cells were starved for either 2 hour,s for chimeric receptors or overnight for full-length receptors prior to stimulation.
Cells were stimulated with 50 ng/ml of human NT-3 for 15 min or 100 ng/ml of human leptin (R&D Systems) for 10 min. Cells were then lysed in a 1% Brij 96 buffer and receptor was immunoprecipitated with anti-myc antibody 9E10 (18) followed by protein G-sepharose (Pharmacia). Unbound lysate was then immunoprecipitated with anti-P-Tyr antibody (UBI, Lake Placid) or agarose-conjugated anti-SHP-2 antibody (Santa Cruz Biotechnology). […] Endogenous STAT3, SHP-2, Jak1 and Jak2 is being detected in all immunoblotting experiments. […]

GST-SHP1-SH2 = molecular target: T4, GST-SHP1-SH2 (Homo sapiens, UniProt P29350); test: Binding to GST-SHP1-SH2 by immunoprecipitation and western blot; conditions: 200 nM GST-SHP1-SH2, 15 nM phosphopeptide or cytoplasmic domain fusion, TBST, 4° C. overnight
T4 construct: Amino acids 2-221 of SHP1 were cloned as a EcoRI/BglII fragment into pGEX-3X; made in house; host or cells: E. coli
T4 sequence (P29350 2-221): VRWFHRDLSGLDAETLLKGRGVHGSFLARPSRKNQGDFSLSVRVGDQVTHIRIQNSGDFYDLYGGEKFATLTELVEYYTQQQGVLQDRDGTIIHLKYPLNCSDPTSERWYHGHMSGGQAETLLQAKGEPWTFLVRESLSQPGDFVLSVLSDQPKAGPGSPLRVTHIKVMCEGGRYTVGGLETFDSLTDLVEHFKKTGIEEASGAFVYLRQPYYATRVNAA
Procedure: The GST-SHP1-SH2 construct consists of the two SH2 domains of SHP1fused downstream of GST. Amino acids 2-221 of SHP1 were cloned as a EcoRI/BglII fragment into pGEX-3X and expressed in E. coli.
(§1) Bindings were done as immunoprecipitations. Binding concentrations were typically 200 nM GST-SHP2-SH2 or GST-SHP1-SH2 and 15 nM phosphopeptide or cytoplasmic domain fusion in TBST (20 mM Tris, 150 mM NaCl, 0.1% Tween 20, pH 7.4) at 4° C. overnight. After binding either anti-flag mAb, M2, was added (for the phosphopeptide and flag tagged GST-OB-R-cyto) or anti-myc mAb, 9E10, was added (for the myc tagged GST-OB-R-cyto) and the proteins were precipitated with protein G-sepharose. Proteins were then detected on western blots using anti-GST polyclonal antibodies. For the EPOR-cyto-Trx fusion, the protein complexes were precipitated with glutathione-sepharose and the EPOR-cyto-Trx fusion was detected with anti-Trx polyclonal antibodies.

[3] = tested on: EPOR-cyto-Trx and GST-SHP1-SH2; test: Competition of EPOR-cyto-Trx for GST-SHP1-SH2 binding; conditions: 4 μM peptide, 15 nM EPOR-cyto-P, 200 nM GST-SHP1-SH2
Procedure: FIG. 10. Competition for GST-SHP1-SH2 or GST-SHP2-SH2 binding to EPOR-cyto-P by a phosphopeptide derived from the sequence surrounding Y401 of the cytoplasmic domain of the EPO receptor. 200 nM GST-SHP1-SH2 or GST-SHP2-SH2, 15 nM EPOR-cyto-P, with and without 4 μM peptide were incubated together. GST-SHP1-SH2 or GST-SHP2-SH2 was immunoprecipitated with Glutathione Sepharose (Pharmacia), and co-precipitating EPOR-cyto-P was visualized with an anti-Trx antibody.
as §1
In this competition the complexes were precipitated with glutathione-sepharose and the EPOR-cyto-Trx was detected by western blot using anti-Trx antibodies. […]

[4] = molecular target: T5, GST-OB-R-cyto/3myc and GST-SHP1-SH2 (Homo sapiens, UniProt P29350); test: Competition for binding of GST-OB-R-cyto/3myc and GST-SHP1-SH2; conditions: 4 μM phosphopeptide, 15 nM cytoplasmic domain, 200 nM GST-SHP1-SH2
T5 construct: Amino acids 2-221 of SHP1 were cloned as a EcoRI/BglII fragment into pGEX-3X; made in house; host or cells: E. coli (OB-R-cyto co-expressed with the ELK tyrosine kinase)
T5 sequence (P29350 2-221): T4 sequence (P29350 2-221)
Procedure: (§2) FIG. 9. Competition for GST-SHP1-SH2 or GST-SHP2-SH2 binding to OB-R-cyto-P by a phosphopeptide containing the sequence surrounding Y986 in OB-R. 200 nM GST-SHP1-SH2 or GST-SHP2-SH2, 15 nM OB-R-cyto-P, with and without 4 μM peptide were incubated together. OB-R-cyto-P was immunoprecipitated with an antibody to the myc epitope tag, and co-precipitating GST-SHP1-SH2 or GST-SHP2-SH2 was visualized with an anti-GST antibody.
as §1, with “After binding either anti-flag mAb, M2, was added (for the phosphopeptide and flag tagged GST-OB-R-cyto) or anti-myc mAb, 9E10, was added (for the myc tagged GST-OB-R-cyto) and the proteins were precipitated with protein G-sepharose.” left out
(§3) In this experiment the SH2 domain, the cytoplasmic domain, and the peptide were mixed and allowed to reach equilibrium. The receptor cytoplasmic domain was precipitated with anti-myc mAb and complexed GST-SHP1-SH2 and GST-SHP2-SH2 were detected by western blot with an anti-GST antibody.

[5] = molecular target: T6, GST-OB-R-cyto/3myc and GST-SHP2-SH2 (Homo sapiens, UniProt Q06124); test: Competition for binding of GST-OB-R-cyto/3myc and GST-SHP2-SH2; conditions: 4 μM phosphopeptide, 15 nM cytoplasmic domain, 200 nM GST-SHP2-SH2
T6 construct: The fusion has aa 2-224 of SHP2 cloned as an EcoRI/BamHI fragment into pGEX-3X; made in house; host or cells: E. coli (OB-R-cyto co-expressed with the ELK tyrosine kinase)
T6 sequence (Q06124 2-224): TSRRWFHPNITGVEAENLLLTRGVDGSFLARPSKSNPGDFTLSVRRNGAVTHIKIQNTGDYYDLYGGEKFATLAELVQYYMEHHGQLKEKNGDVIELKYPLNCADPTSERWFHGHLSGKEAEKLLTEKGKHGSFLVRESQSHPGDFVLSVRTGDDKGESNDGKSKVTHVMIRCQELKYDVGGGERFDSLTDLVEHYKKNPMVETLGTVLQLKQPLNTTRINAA
Procedure: as §2
as §1, with “After binding either anti-flag mAb, M2, was added (for the phosphopeptide and flag tagged GST-OB-R-cyto) or anti-myc mAb, 9E10, was added (for the myc tagged GST-OB-R-cyto) and the proteins were precipitated with protein G-sepharose.” left out
as §3

GST-SHP2-SH2 = molecular target: T7, GST-SHP2-SH2 (Homo sapiens, UniProt Q06124); test: Binding to GST-SHP2-SH2 by immunoprecipitation and western blot; conditions: 200 nM GST-SHP2-SH2, 15 nM phosphopeptide or cytoplasmic domain fusion, TBST, 4° C. overnight
T7 construct: The fusion has aa 2-224 of SHP2 cloned as an EcoRI/BamHI fragment into pGEX-3X; made in house; host or cells: E. coli
T7 sequence (Q06124 2-224): T6 sequence (Q06124 2-224)
Description: The GST-SHP2-SH2 construct consists of the two SH2 domains of SHP2fused downstream of glutathione-S-transferase (GST) from Schistosoma japonicum. The fusion has aa 2-224 of SHP2 cloned as an EcoRI/BamHI fragment into pGEX-3X and was expressed in E. coli. The SHP2-SH2-Fc construct consists of the same amino acids as the above fusion fused to human IgG-Fc as a BlpI/SrfI fragment in pMT21 and was expressed in COS-7 cells.
as §1

increase in luciferase activity (TOBRY986F)	increase in luciferase activity [1]	binding to GST-SHP1-SH2 (GST-SHP1-SH2)	competition of EPOR-cyto-Trx for GST-SHP1-SH2 binding [3]	competition for binding of GST-OB-R-cyto/3myc and GST-SHP1-SH2 [4]	competition for binding of GST-OB-R-cyto/3myc and GST-SHP2-SH2 [5]	binding to GST-SHP2-SH2 (GST-SHP2-SH2)	binding to GST-SHP1-SH2 (GST-SHP1-SH2; listed as synthetic phosphopeptide from EPOR)	Substance	tyrosine phosphorylation of TOBR and downstream signaling molecules [2]
~45 fold	~8 fold	–	–	–	–	–	–	NT-3: neurotrophin-3, surrogate ligand used to activate the TrkC-OB-R chimeric receptors	resulted in ligand-dependent tyrosine phosphorylation
–	–	bound	a small amount of competition	no competition	no competition	bound specifically	–	QPFVKp-YATLISNDYKDDDDK [OB-R phosphopeptide]	–
–	–	bound	a small amount of competition	–	–	–	Very poor binding	CPHLKp-YLYLVVSDDYKDDDDK [EPOR phosphopeptide]	–
